Bridges are numbered along the chain shown (N, C = ends). Where no end group is shown, it is not given here.
Biological target: integrin receptors expressed on surface of U87MG glioblastoma cells (Homo sapiens, UniProt P05106+P06756)
Test: U87MG competition binding assay

ECESGPCCRNCKFLKEGTICKRARGDDMDDYCNGKTCDCPRNPHKGPAT (disulfide 2-11, 7-32, 8-37, 20-39 (inferred)) [echistatin]
IC50: 3.3 ± 0.6 nM
